One series concerns RBE cells. As to the kind of experiment: Intracellular NO measurement with fluorescent probe DAF-FM DA (flow cytometry). Format: cell-based, human. The conditions noted are these: 2 μM, 2.5 h; for MFI (fold of RRx-001), intracellular NO: DAF-FM DA. Here is the method: Intracellular NO was measured with 3-amino,4-aminomethyl-2′,7′-diflfluorescein, diacetate (DAF-FM DA, Beyotime, Shanghai, China). In detail, RBE cells in the logarithmic growth phase were collected and spread on 6-well plate at a density of 150,000 per well overnight. The adherent cells were pretreated with 5 μM DAF-FM DA at 37 °C for 20 min and then incubated with RRx-001, compounds 2–6 and 21 for 2.5 h, followed by flow cytometer analysis (BD Accuri C6, Shanghai, China). Cells were washed three times with cold PBS between each step. The experiment was performed three times.

Series [1] concerns RBE cell lines. Nature of the series: cells. The conditions noted are these: Homo sapiens, 48 h, read-out: IC50, antiproliferation activities in RBE.
Experimental: Tested compounds were dissolved into DMSO (Sigma-Aldrich, Shanghai, China) to prepare a solution with concentration of 2 mM for use.
The in vitro antiproliferation of the chemical compounds was measured by the MTT reagent, as described in the literature. Briefly, 4000–6000 cells in 100 μL of medium per well were plated in 96-well plates. […] At the same time, blank group without adding cells was set. […] Last, the MTT-containing medium was discarded and 150 μL of DMSO per well was added to dissolve the formazan crystals newly formed. Absorbance of each well was determined by a microplate reader (Synergy H4, Bio-Tek) at a 570 nm wavelength. The inhibition rates of proliferation were calculated with the following equation:Inhibition ratio (%) = (ODDMSO−ODcompd)/(ODDMSO−ODblank) × 100
Series [2] has as its system RBE cell lines. Nature of the series: Cell cycle analysis (PI staining, flow cytometry). Format: cell-based, human. The conditions noted are these: 1 μM. The protocol: The experimental cells RBE were cultured and collected when the cells were in good growth state. After digesting with 0.25% trypsin (Beyotime), the cells were collected and centrifuged. The cells were inoculated in petri dishes (Φ = 6 cm) with an inoculation density of 500,000 cells per dish and 3 mL medium per dish. The cells were placed in the incubator, changed to serum-free RPMI 1640 medium after 12 h, left to continue to culture for 12 h, and then compounds were added. Compounds groups with the concentration of 1 μM and control group treated with DMSO were set. The original culture medium was removed, and the compounds were added. After incubation for 16h, the cells were collected and centrifuged at 1000 r for 5 min. The cells were rinsed twice with PBS, and the supernatant was removed by centrifugation. 75% ethanol (1 mL) was added and placed in a refrigerator at −20 °C overnight for cell fixation.
The fixed cells were centrifuged at 2000 r for 5 min, the supernatant was discarded, 1 mL of PBS solution was added, and the supernatant was resuspended and discarded. 0.5 mL of PI staining solution was added to each tube (staining buffer: 20 × PI staining solution: 50 × RNase A = 100:5:2) and stored at room temperature for 30 min in the dark for testing on the flow cytometry.

Series [3] concerns Cyclin B1, PARP and Caspase-3 in RBE cell lines. As to the kind of experiment: Western blot analysis of cell-cycle- and apoptosis-related proteins. The conditions noted are these: 1 and 4 μM. Format: cell-based, human. The protocol: Approximately 2 × 10^5 cells of RBE were seeded in 6-well plates. After treated with compound 3 (1 and 4 μM) for 24 h, cells were lysed with ice-cold RIPA lysis buffer (Beyotime, Shanghai, China) for 30 min and then centrifuged at 12,000 rpm for 10 min at 4 °C. The total protein concentration was determined by BCA protein assay kit (Beyotime, Shanghai, China). Equal amounts (20 μg per load) of protein samples were subjected to 12% SDS-PAGE gel and transferred onto polyvinylidene fluoride (PVDF) membranes (Epizyme Biotech, Shanghai, China), which were then blocked with 5% bovine serum albumin (Ebsdorfelgrund, Hesse, Germany) for 1.5 h and reacted with primary antibodies (1: 1000 diluted) at 4 °C overnight. Subsequently, the PVDF membranes were incubated in the secondary antibody (1: 10,000 diluted) for 2 h at room temperature. ECL chemiluminescent solution was used for color rendering. The antibodies against Cyclin B1, Caspase 3, and PARP were purchased from Cell Signaling Technology. The secondary antibodies conjugated with horseradish peroxidase (HRP) were from AoWei Biology and CST. The protein bands were developed by the chemiluminescent reagents (Meilunbio, Shanghai, China).

On to `Cc1cc(=O)oc2cc(OCCCN3CC([N+](=O)[O-])([N+](=O)[O-])C3)ccc12`, for which the melting point was in the range of 78.5 to 79.6 °C.

For the compound `Cc1c(Cc2ccccc2)c(=O)oc2cc(OCCCN3CC([N+](=O)[O-])([N+](=O)[O-])C3)ccc12`, the melting point is 115.1 to 116.8 °C.

In the case of `Cc1c(Cc2ccc(C#N)cc2)c(=O)oc2cc(OCCN3CC([N+](=O)[O-])([N+](=O)[O-])C3)ccc12`, the melting point lay in the range of 122.5 to 124.1 °C.

Turning to `O=C(CBr)N1CC([N+](=O)[O-])([N+](=O)[O-])C1` [RRx-001, reference compound], in the series with RBE cells, the “MFI (fold of RRx-001), intracellular NO” value was 1 fold of RRx-001. Moreover, the IC50 in the series on RBE cell lines [1] came to 2000 nM.

`Cc1c(Cc2ccc(C#N)cc2)c(=O)oc2cc(OCCCCN3CC([N+](=O)[O-])([N+](=O)[O-])C3)ccc12` returned a melting point of 135.1 to 136.3 °C.

In turn, `Cc1c(Cc2ccc(C#N)cc2)c(=O)oc2cc(OCCOCC(=O)N3CC([N+](=O)[O-])([N+](=O)[O-])C3)ccc12` [Compound 3, 4-((7-(2-(2-(3,3-Dinitroazetidin-1-yl)-2-oxoethoxy)ethoxy)-4-methyl-2-oxo-2H-chromen-3-yl)methyl)benzonitrile] registered a melting point of 74.9 to 76.3 °C. Besides, the “MFI (fold of RRx-001), intracellular NO” value with RBE cells is recorded as 1.36 fold of RRx-001. In addition, in the series on RBE cells (compared to RRx-001), the “NO release level in RBE cells (in words)” value is recorded as “highest NO release concentration”. Also, the “cell cycle effect (in words)” value in the series with RBE cell lines [2] is reported as “arrest the cell cycle at G2/M phase”. The “mean percentage of cells in the G2/M phase” value in the series on RBE cell lines [2] (DMSO control 18%) was determined as 23%. For the same compound, in series [3], the “expression of PARP, Caspase-3 and Cyclin B1 (Western blotting)” value was “downregulated”. For the same compound, in the series on RBE cell lines [1], the IC50 came to 950 nM.

For the compound `Cc1c(Cc2ccccc2)c(=O)oc2cc(OCCOCC(=O)N3CC([N+](=O)[O-])([N+](=O)[O-])C3)ccc12` [Compound 5, 3-Benzyl-7-(2-(2-(3,3-dinitroazetidin-1-yl)-2-oxoethoxy)ethoxy)-4-methyl-2H-chromen-2-one], the melting point fell in the range of 82.5 to 84.5 °C. Moreover, the “MFI (fold of RRx-001), intracellular NO” value in the series on RBE cells was 0.83 fold of RRx-001. The IC50 in the series on RBE cell lines [1] came out at 710 nM.

`Cc1c(Cc2ccc(F)cc2)c(=O)oc2cc(OCCN3CC([N+](=O)[O-])([N+](=O)[O-])C3)ccc12` yielded a melting point of 137.9 to 139.2 °C.

`Cc1cc(=O)oc2cc(OCCN3CC([N+](=O)[O-])([N+](=O)[O-])C3)ccc12` registered a melting point of 91 to 93 °C.

Turning to `Cc1c(Cc2ccc(F)cc2)c(=O)oc2cc(OCCOCC(=O)N3CC([N+](=O)[O-])([N+](=O)[O-])C3)ccc12` [Compound 4, 7-(2-(2-(3,3-Dinitroazetidin-1-yl)-2-oxoethoxy)ethoxy)-3-(4-fluorobenzyl)-4-methyl-2H-chromen-2-one], the melting point is 70 to 71.9 °C. For the same compound, in the series on RBE cells, the “MFI (fold of RRx-001), intracellular NO” value is recorded as 0.86 fold of RRx-001. The IC50 with RBE cell lines [1] is 890 nM.

`Cc1cc(=O)oc2cc(OCCCCN3CC([N+](=O)[O-])([N+](=O)[O-])C3)ccc12` [Compound 21, 7-(4-(3,3-Dinitroazetidin-1-yl)butoxy)-4-methyl-2H-chromen-2-one] returned a melting point of 85.8 to 87.2 °C. Besides, the “MFI (fold of RRx-001), intracellular NO” value in the series with RBE cells was 1.13 fold of RRx-001. In addition, the IC50 in the series on RBE cell lines [1] amounted to 1090 nM.

`Cc1cc(=O)oc2cc(OCCOCC(=O)N3CC([N+](=O)[O-])([N+](=O)[O-])C3)ccc12` registered a melting point of 82.5 to 84.5 °C.

Regarding `Cc1c(Cc2ccccc2)c(=O)oc2cc(OCCN3CC([N+](=O)[O-])([N+](=O)[O-])C3)ccc12`, the melting point was in the range of 173 to 175 °C.

Turning to `Cc1c(Cc2ccc(F)cc2)c(=O)oc2cc(OCCCCN3CC([N+](=O)[O-])([N+](=O)[O-])C3)ccc12`, the melting point lay in the range of 113.3 to 115.1 °C.

The compound `Cc1c(Cc2ccc(C(F)(F)F)cc2)c(=O)oc2cc(OCCN3CC([N+](=O)[O-])([N+](=O)[O-])C3)ccc12` displayed a melting point of 98 to 99.8 °C.

For the compound `Cc1c(Cc2ccc(C(F)(F)F)cc2)c(=O)oc2cc(OCCOCC(=O)N3CC([N+](=O)[O-])([N+](=O)[O-])C3)ccc12` [Compound 2, 7-(2-(2-(3,3-Dinitroazetidin-1-yl)-2-oxoethoxy)ethoxy)-4-methyl-3-(4-(trifluoromethyl)benzyl)-2H-chromen-2-one], the melting point fell in the range of 65.3 to 67 °C. The “MFI (fold of RRx-001), intracellular NO” value in the series on RBE cells is on record as 0.95 fold of RRx-001. In the series on RBE cell lines [1], the IC50 was determined as 1110 nM.

The values are drawn from article PMC9268168, “Novel Nitric Oxide Donor Dinitroazetidine-Coumarin Hybrids as Potent Anti-Intrahepatic Cholangiocarcinoma Agents” (Molecules, 2022).
